According to patent US12559464B2, “Quinazolinone dione compounds and uses thereof” (Edgewise Therapeutics, Inc., priority 2023, dated 2026):

Legend:
[1] = test system: myosin ATPase, Rabbit Psoas myofibrils; assay: Myofibril ATPase assay, rabbit psoas (skeletal) myofibrils; assay type: biochemical; conditions: Rabbit Psoas Prep pCa 25 GEOM_MEAN; for Rabbit Psoas EC25 (Y75 value): concentration required to reduce myosin ATP-ase activity by 25%; for Rabbit Psoas Y125 value (marked #): concentration required to increase myosin ATP-ase activity by 25%
Experimental: [Worded in the source for another species; this species is reported under the same test.] (§1) Myofibril ATPase assays are known in the art to be useful in evaluating small molecules for the treatment of HCM and other cardiac indications. Myosin ATPase activity is assessed by using a coupled reaction system, in which ADP generated by the myosin ATPase function is coupled to the disappearance of NADH through the pyruvate kinase/lactate dehydrogenase (PK-LDH) system. ATPase activity produces ADP, which is used as a substrate for PK to produce pyruvate and regenerate ATP. The pyruvate is then used as a substrate by LDH to oxidize NADH to NAD+. The rate of the reaction is monitored through the time-dependent disappearance of NADH using absorbance at 340 nm, which, when the couple system is in stoichiometric excess, is directly correlated to the ATPase activity of the myosin. Inhibition of ATPase activity by the assayed compounds is indicated by a reduced rate of NADH loss, relative to vehicle-treated controls, over the experimental time window. Porcine Ventricle are the primary sources of myofibril material.
(§2) Materials: The following stock solutions and reagents were used in the Myofibril ATPase Assay: Stock Solutions; PIPES, 200 mM and 120 mM in H2O, pH 7.0; MgCl2 in H2O, 200 mM; PM12 Buffer, 10×: 120 mM PIPES (from 200 mM stock), 20 mM MgCl2 (from 200 mM stock); PBS Buffer, 1X: 135 mM NaCl, […], 10 mM Na(PO4)2, 1.8 mM K2(PO4), pH 7.4; EGTA in H2O, 250 mM; CaCl2) in H2O, 500 mM; DTT in H2O, 1 M; BSA in H2O, 10 mg/mL; ATP in 1×PBS, 50 mM; NADH in 1X PM12 and 1 mM DTT, 26 mM; PEP in 1X PM12, 78 mM, pH 7.0.
(§3) Stock Solutions of pCa buffer. Combine PIPES, CaCl2, and EGTA solutions with water. Adjust pH to 7.0 and bring final volume to 100 mL.
(§4) Buffer A & Buffer B. Prepare buffers A and B according to the table below.
(§5) Myofibril ATPase Assay Procedure: BSA, ATP, NADH, PEP, and DTT solutions were thawed at room temperature, then transferred to ice. Pellet-frozen myofibrils were transferred with approximately twice the required volume into a sufficiently large tube and capped. Myofibrils were thawed by rolling in a water bath for approximately 15 min at room temperature and cooled on ice. Buffers A and B were prepared by adjusting volumes as necessary for required number of wells and stored on ice. 0.5 μL of the compounds to be assayed were added into wells. 25 μL of Buffer A was dispensed into the wells, followed by 25 μL of Buffer B. The wells were measured for absorbance at 340 nm, using a kinetic protocol in which the wells are read every 1.5-2 min for 75 min. Assay data analysis was performed using a python script that filtered the raw data to retain those points falling between a starting and ending time and between a maximum and minimum absorbance, then used the filtered time-domain 340 nm absorbance data in each well to calculate a slope via linear regression analysis in units of mAU/min. Compound slopes were normalized between 100% and 0% activity, where 100% represented the slope of wells containing only compound vehicle, and fit to a 4-parameter logistic model. In addition to the fit parameters, the EC25% values were calculated, relative to the 100% normalized value. Additionally, the Y125 values were calculated for compounds that increased myosin ATP-ase activity. Fit parameters, calculated effective concentrations, filtered raw data, and calculated slopes were exported, in addition to compound-specific graphs of normalized ATPase activity versus concentration in μM. Each value reported in Table 8 is either a Y75 value or a Y125 value. Values without pound sign, #, are Y75 values, which reflect the concentration required to reduce myosin ATP-ase activity by 25% (e.g., Y-axis activity value is 75% of initial value), relative to myosin ATP-ase activity in the absence of exogenous compound. […]

[2] = test system: myosin ATPase, Porcine Atria myofibrils; assay: Myofibril ATPase assay, porcine atria myofibrils; assay type: biochemical; conditions: concentration required to reduce myosin ATP-ase activity by 25%; Porcine Atria Prep pCa 25 GEOM_MEAN
[3] = target: T1, myosin ATPase, Porcine Ventricle myofibrils (Sus scrofa, UniProt P79293); assay: Myofibril ATPase assay, porcine ventricle myofibrils; assay type: biochemical, porcine (Yucatan minipigs); conditions: concentration required to reduce myosin ATP-ase activity by 25%; Porcine Ventricle Prep pCa 25 GEOM_MEAN
T1 construct: Myofibrils from porcine cardiac muscle was isolated from the left ventricle of Yucatan minipigs; tissue Exemplar Genetics; host or cells: left ventricle of Yucatan minipigs, myofibrils
T1 sequence (P79293 whole entry): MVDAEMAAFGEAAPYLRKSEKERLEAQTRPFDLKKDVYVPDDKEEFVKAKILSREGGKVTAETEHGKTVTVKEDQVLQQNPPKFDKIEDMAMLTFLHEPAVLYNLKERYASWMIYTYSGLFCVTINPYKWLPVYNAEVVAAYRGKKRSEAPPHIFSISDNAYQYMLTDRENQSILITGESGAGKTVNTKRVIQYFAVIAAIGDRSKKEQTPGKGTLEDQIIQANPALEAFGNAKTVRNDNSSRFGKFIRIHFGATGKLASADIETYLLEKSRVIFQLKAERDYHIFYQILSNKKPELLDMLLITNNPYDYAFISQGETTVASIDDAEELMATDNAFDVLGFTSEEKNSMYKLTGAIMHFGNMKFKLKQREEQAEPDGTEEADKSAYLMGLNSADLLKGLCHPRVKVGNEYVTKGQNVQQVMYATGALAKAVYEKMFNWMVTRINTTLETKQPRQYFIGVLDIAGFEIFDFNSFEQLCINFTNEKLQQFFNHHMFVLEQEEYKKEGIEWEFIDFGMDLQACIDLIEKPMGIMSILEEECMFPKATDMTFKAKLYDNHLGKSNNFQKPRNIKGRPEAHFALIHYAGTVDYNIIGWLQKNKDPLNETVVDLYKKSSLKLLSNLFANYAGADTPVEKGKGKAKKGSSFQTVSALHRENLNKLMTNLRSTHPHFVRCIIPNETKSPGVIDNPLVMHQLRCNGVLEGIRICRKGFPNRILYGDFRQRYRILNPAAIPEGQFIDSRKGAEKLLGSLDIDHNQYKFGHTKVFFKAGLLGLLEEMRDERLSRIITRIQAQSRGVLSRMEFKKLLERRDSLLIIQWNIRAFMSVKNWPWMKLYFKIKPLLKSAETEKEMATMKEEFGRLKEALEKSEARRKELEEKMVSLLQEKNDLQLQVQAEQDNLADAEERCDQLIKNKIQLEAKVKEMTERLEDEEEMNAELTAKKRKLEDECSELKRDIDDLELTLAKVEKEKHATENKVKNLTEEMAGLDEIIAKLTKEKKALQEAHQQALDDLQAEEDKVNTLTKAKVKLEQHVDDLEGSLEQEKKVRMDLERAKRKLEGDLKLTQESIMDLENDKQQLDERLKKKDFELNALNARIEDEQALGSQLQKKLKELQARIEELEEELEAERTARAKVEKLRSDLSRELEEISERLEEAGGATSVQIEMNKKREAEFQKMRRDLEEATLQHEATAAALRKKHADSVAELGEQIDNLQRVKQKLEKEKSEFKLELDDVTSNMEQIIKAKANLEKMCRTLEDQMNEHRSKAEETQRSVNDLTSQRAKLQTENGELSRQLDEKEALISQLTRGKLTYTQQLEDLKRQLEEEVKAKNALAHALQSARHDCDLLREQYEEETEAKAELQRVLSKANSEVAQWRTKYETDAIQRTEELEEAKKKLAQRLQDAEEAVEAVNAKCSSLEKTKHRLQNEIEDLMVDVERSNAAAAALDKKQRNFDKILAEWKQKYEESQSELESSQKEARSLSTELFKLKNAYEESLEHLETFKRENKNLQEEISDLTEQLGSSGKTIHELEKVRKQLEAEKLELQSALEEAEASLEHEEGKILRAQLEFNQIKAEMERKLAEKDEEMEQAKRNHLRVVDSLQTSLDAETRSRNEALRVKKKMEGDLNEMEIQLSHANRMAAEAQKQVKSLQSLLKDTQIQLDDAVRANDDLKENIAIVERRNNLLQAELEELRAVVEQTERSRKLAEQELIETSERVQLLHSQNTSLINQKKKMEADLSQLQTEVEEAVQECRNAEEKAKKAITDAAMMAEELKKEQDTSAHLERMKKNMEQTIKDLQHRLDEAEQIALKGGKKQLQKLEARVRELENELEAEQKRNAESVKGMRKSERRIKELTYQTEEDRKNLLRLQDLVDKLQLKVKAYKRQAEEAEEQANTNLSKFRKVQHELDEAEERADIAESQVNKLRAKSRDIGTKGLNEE
Experimental: as §1, §2, §3, §4, §5

Cc1nccc2[nH]c(=O)n(CC(=O)N[C@H](C)c3ncc(C#N)cc3F)c(=O)c12 (single isomer, unassigned) [Compound 19]
Rabbit Psoas EC25 (Y75 value) [1]: 21.6 µM
Porcine Atria EC25 (Y75 value) [2]: 15.77 µM
Porcine Ventricle EC25 (Y75 value) [3]: 100 µM

C[C@@H](NC(=O)Cn1c(=O)[nH]c2ccc(F)c(F)c2c1=O)c1ncc(C#N)cc1F (single isomer, unassigned) [Compound 21]
Rabbit Psoas EC25 (Y75 value) [1]: 1.66 µM
Porcine Atria EC25 (Y75 value) [2]: 1.799 µM
Porcine Ventricle EC25 (Y75 value) [3]: 0.615 µM

C[C@H](NC(=O)Cn1c(=O)[nH]c2ccc(F)c(F)c2c1=O)c1ncc(C#N)cc1F (single isomer, unassigned) [Compound 22]
Rabbit Psoas EC25 (Y75 value) [1]: 0.036 µM
Porcine Atria EC25 (Y75 value) [2]: 0.083 µM
Porcine Ventricle EC25 (Y75 value) [3]: 0.205 µM

CC(C)C[C@@H](C(=O)N[C@@H](C)c1ncc(F)cc1F)n1c(=O)[nH]c2ccccc2c1=O (single isomer, unassigned) [Compound 27]
Rabbit Psoas EC25 (Y75 value) [1]: 100 µM
Porcine Atria EC25 (Y75 value) [2]: 100 µM
Porcine Ventricle EC25 (Y75 value) [3]: 100 µM

CC(C)C[C@H](C(=O)N[C@@H](C)c1ncc(F)cc1F)n1c(=O)[nH]c2ccccc2c1=O (single isomer, unassigned) [Compound 28]
Rabbit Psoas EC25 (Y75 value) [1]: 39.563 µM
Porcine Atria EC25 (Y75 value) [2]: 59.55 µM
Porcine Ventricle EC25 (Y75 value) [3]: 100 µM

CC(C)C[C@@H](C(=O)N[C@@H](C)c1ccc(F)cc1F)n1c(=O)[nH]c2ccccc2c1=O (single isomer, unassigned) [Compound 31]
Rabbit Psoas Y125 value (marked #) [1]: 24.3^# μM
Porcine Atria EC25 (Y75 value) [2]: 56.82 µM
Porcine Ventricle EC25 (Y75 value) [3]: 59.48 µM

CC(C)C[C@H](C(=O)N[C@@H](C)c1ccc(F)cc1F)n1c(=O)[nH]c2ccccc2c1=O (single isomer, unassigned) [Compound 32]
Rabbit Psoas Y125 value (marked #) [1]: 7.64^#^ μM
Porcine Atria EC25 (Y75 value) [2]: 68.73 µM
Porcine Ventricle EC25 (Y75 value) [3]: 100 µM

C[C@H](NC(=O)[C@H](C)n1c(=O)[nH]c2cccc(O)c2c1=O)c1ccc(F)cc1F (single isomer, unassigned) [Compound 35]
Rabbit Psoas EC25 (Y75 value) [1]: 0.086 µM
Porcine Atria EC25 (Y75 value) [2]: 0.0835 µM
Porcine Ventricle EC25 (Y75 value) [3]: 1.64 µM

C[C@H](NC(=O)[C@@H](C)n1c(=O)[nH]c2cccc(O)c2c1=O)c1ccc(F)cc1F (single isomer, unassigned) [Compound 36]
Rabbit Psoas EC25 (Y75 value) [1]: 0.104 µM
Porcine Atria EC25 (Y75 value) [2]: 0.0803 µM
Porcine Ventricle EC25 (Y75 value) [3]: 1.35 µM

O=C(Cn1c(=O)[nH]c2ccncc2c1=O)N[C@H]1CCc2cc(F)cc(F)c21 (single isomer, unassigned) [Compound 44]
Rabbit Psoas EC25 (Y75 value) [1]: 1.145 µM
Porcine Atria EC25 (Y75 value) [2]: 36.5 µM
Porcine Ventricle EC25 (Y75 value) [3]: 100 µM

O=C(Cn1c(=O)[nH]c2ccccc2c1=O)N[C@H]1CCc2cc(F)cc(F)c21 (single isomer, unassigned) [Compound 48]
Rabbit Psoas EC25 (Y75 value) [1]: 0.156 µM
Porcine Atria EC25 (Y75 value) [2]: 0.4184 µM
Porcine Ventricle EC25 (Y75 value) [3]: 7.872 µM

CC[C@H](NC(=O)Cn1c(=O)[nH]c2ccccc2c1=O)c1ccc(F)cc1F (single isomer, unassigned) [Compound 49]
Rabbit Psoas EC25 (Y75 value) [1]: 100 µM
Porcine Atria EC25 (Y75 value) [2]: 100 µM
Porcine Ventricle EC25 (Y75 value) [3]: 100 µM

CC(C)[C@H](NC(=O)Cn1c(=O)[nH]c2ccccc2c1=O)c1ccc(F)cc1F (single isomer, unassigned) [Compound 50]
Rabbit Psoas EC25 (Y75 value) [1]: 100 µM
Porcine Atria EC25 (Y75 value) [2]: 100 µM
Porcine Ventricle EC25 (Y75 value) [3]: 100 µM

O=C(Cn1c(=O)[nH]c2ccccc2c1=O)N[C@H]1CCCc2cc(F)cc(F)c21 (single isomer, unassigned) [Compound 55]
Rabbit Psoas EC25 (Y75 value) [1]: 100 µM
Porcine Atria EC25 (Y75 value) [2]: 100 µM
Porcine Ventricle EC25 (Y75 value) [3]: 100 µM

O=C(Cn1c(=O)[nH]c2ccccc2c1=O)N[C@@H]1CCCc2cc(F)cc(F)c21 (single isomer, unassigned) [Compound 57]
Rabbit Psoas EC25 (Y75 value) [1]: 0.937 µM
Porcine Atria EC25 (Y75 value) [2]: 1.067 µM
Porcine Ventricle EC25 (Y75 value) [3]: 25.71 µM

CC(C)C[C@H](NC(=O)Cn1c(=O)[nH]c2ccccc2c1=O)c1ccc(F)cc1F (single isomer, unassigned) [Compound 70]
Rabbit Psoas Y125 value (marked #) [1]: 90.27^# μM
Porcine Atria EC25 (Y75 value) [2]: 100 µM
Porcine Ventricle EC25 (Y75 value) [3]: 100 µM

C[C@H](NC(=O)Cn1c(=O)[nH]c2ccccc2c1=O)c1ccc(O)nc1 (single isomer, unassigned) [Compound 98]
Rabbit Psoas EC25 (Y75 value) [1]: 100 µM
Porcine Atria EC25 (Y75 value) [2]: 100 µM
Porcine Ventricle EC25 (Y75 value) [3]: 100 µM

C[C@H](NC(=O)Cn1c(=O)[nH]c2ccccc2c1=O)c1ccncc1F (single isomer, unassigned) [Compound 99]
Rabbit Psoas EC25 (Y75 value) [1]: 100 µM
Porcine Atria EC25 (Y75 value) [2]: 100 µM
Porcine Ventricle EC25 (Y75 value) [3]: 100 µM

C[C@@H](NC(=O)Cn1c(=O)[nH]c2ccccc2c1=O)c1ccncc1F (single isomer, unassigned) [Compound 100]
Rabbit Psoas EC25 (Y75 value) [1]: 12.272 µM
Porcine Atria EC25 (Y75 value) [2]: 31.84 µM
Porcine Ventricle EC25 (Y75 value) [3]: 100 µM

C[C@H](NC(=O)[C@@H](C)n1c(=O)[nH]c2ccccc2c1=O)c1ccc(F)cc1F (single isomer, unassigned) [Compound 101]
Rabbit Psoas EC25 (Y75 value) [1]: 1.521 µM
Porcine Atria EC25 (Y75 value) [2]: 1.036 µM
Porcine Ventricle EC25 (Y75 value) [3]: 87.37 µM

C[C@H](NC(=O)[C@H](C)n1c(=O)[nH]c2ccccc2c1=O)c1ccc(F)cc1F (single isomer, unassigned) [Compound 102]
Rabbit Psoas EC25 (Y75 value) [1]: 0.761 µM
Porcine Atria EC25 (Y75 value) [2]: 1.175 µM
Porcine Ventricle EC25 (Y75 value) [3]: 99.13 µM

C[C@H](NC(=O)Cn1c(=O)[nH]c2cccc(F)c2c1=O)c1ncc(C#N)cn1 (single isomer, unassigned) [Compound 202]
Rabbit Psoas EC25 (Y75 value) [1]: 7.437 µM
Porcine Atria EC25 (Y75 value) [2]: 8.617 µM
Porcine Ventricle EC25 (Y75 value) [3]: 100 µM

C[C@H](NC(=O)Cn1c(=O)[nH]c2cccc(C#N)c2c1=O)c1ncc(C#N)cn1 (single isomer, unassigned) [Compound 204]
Rabbit Psoas EC25 (Y75 value) [1]: 100 µM
Porcine Atria EC25 (Y75 value) [2]: 100 µM
Porcine Ventricle EC25 (Y75 value) [3]: 70.61 µM

C[C@@H](NC(=O)Cn1c(=O)[nH]c2cccc(F)c2c1=O)c1ncc(C#N)cc1F (single isomer, unassigned) [Compound 207]
Rabbit Psoas EC25 (Y75 value) [1]: 4.593 µM
Porcine Atria EC25 (Y75 value) [2]: 100 µM
Porcine Ventricle EC25 (Y75 value) [3]: 100 µM

C[C@H](NC(=O)Cn1c(=O)[nH]c2cccc(F)c2c1=O)c1ncc(C#N)cc1F (single isomer, unassigned) [Compound 208]
Rabbit Psoas EC25 (Y75 value) [1]: 0.065 µM
Porcine Atria EC25 (Y75 value) [2]: 0.085 µM
Porcine Ventricle EC25 (Y75 value) [3]: 0.254 µM

C[C@@H](NC(=O)Cn1c(=O)[nH]c2ccc(F)cc2c1=O)c1cnc(C#N)nc1 (single isomer, unassigned) [Compound 209]
Rabbit Psoas EC25 (Y75 value) [1]: 39.51 µM
Porcine Atria EC25 (Y75 value) [2]: 100 µM
Porcine Ventricle EC25 (Y75 value) [3]: 100 µM
